≈ marks a conversion by molar mass, not a printed value. Entries after “also recorded” stand apart in the source; their conditions may differ. Like-named read-outs stand apart in the source and are kept apart here.
Experiments:
AB5075 [1] = conditions: previously reported, cited from earlier work
AB5075 [2] = conditions: compound alone, previously reported; cited from earlier work
AB5075 [3] = conditions: previously reported, cited from earlier work; remark: listed apart in the source
[4] = system: E. coli biofilm formation; conditions: Bioorg Med Chem Lett 2010; cited from earlier work
AB5075 [5] = assay: Broth microdilution MIC of compound alone (standalone toxicity); assay type: cell-based, Acinetobacter baumannii
In short: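 A. baumannii 5075 subcultured to 5×10^5 CFU/mL in cation-adjusted Mueller-Hinton broth; compound twofold serially diluted from 200 μM (DMSO stock) and incubated stationary at 37° C for 16 h. MIC taken as lowest concentration with no visible growth; duplicates, repeated at least twice.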

AB5075 [6] = assay: Broth microdilution clarithromycin (CLR) potentiation and dose-response of adjuvant; assay type: cell-based, Acinetobacter baumannii
In short: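 A. baumannii AB5075 at 5×10^5 CFU/mL in CAMHB with fixed adjuvant (DMSO ≤0.3%) and two-fold serially diluted clarithromycin or colistin, stationary 16 h at 37° C. MIC = lowest concentration without visible growth; fold reduction versus antibiotic alone. Dose-response used adjuvant at 0–30 μM.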

AB5075 [7] = assay: Colistin MIC in presence of adjuvant (broth microdilution antibiotic potentiation); assay type: cell-based, Acinetobacter baumannii
Method: Bacterial Strains and Antimicrobial Agents. Acinetobacter baumannii clinical isolate 5075 was obtained from Dr. Colin Manoil at the University of Washington. Colonies were grown on lysogeny broth (LB) agar. Cation-adjusted Mueller-Hinton Broth (CAMHB) (catalog number 212322) were purchased from BD Diagnostics. LB broth was purchased from Fisher Scientific (catalog number BP9722-2). […] Colistin sulfate salt (catalog number C4461) was purchased from Sigma Aldrich. All assays were completed in duplicate and repeated at least two separate times. All compounds were dissolved as their HCl salts in molecular biology grade DMSO as 10 or 100 mM stock solutions and stored at −20° C. Colistin was dissolved in sterile water while clarithromycin was dissolved in molecular biology grade DMSO.
Broth microdilution method for antibiotic potentiation. Day cultures (6 h) of bacteria in CAMHB were subcultured to 5×10^5 CFU/mL in CAMHB. Aliquots (4 mL) were placed in culture tubes and dosed with compound from 10 mM stock samples to give the desired concentration of the compound to be tested against the particular bacterial strain; this insured non-toxic DMSO concentrations ≤0.3% in each well. 1 mL of the resulting solution was placed in a separate culture and dosed with antibiotic at the highest concentration to be tested. Bacteria treated with antibiotic alone served as the control. Row one of a 96-well plate was filled with 200 μL of the antibiotic/2-AI solution, and rows 2-12 were filled with 100 μL each of the remaining 4 mL of bacterial subculture containing adjuvant at the desired concentration, except for the control lane which contained only bacterial subculture. Row one was then mixed five times, and 100 μL was transferred to row two, which was then mixed five times before being transferred to row three. This process was repeated until all rows had been mixed, except for row twelve which would have only 2-AI to serve as a control to monitor potential toxicity. The 96-well plate was then covered in Glad Press n'Seal and incubated under stationary conditions at 37° C. for 16 h. MIC values were determined as the lowest concentration at which no bacterial growth was observed, and fold reductions were determined by comparison to antibiotic control lane.
Dose-response of Adjuvant Assay. The procedure for ‘broth microdilution method for antibiotic potentiation’ was followed using 4 mL aliquots of adjuvant at various concentrations: 0, 5, 7.5, 10, 15, 20, 25, and 30 μM.

AB5075 [8] = assay: Evolution of clarithromycin resistance by serial passage; assay type: cell-based, Acinetobacter baumannii
Method: A. baumannii 5075 was grown in CAMHB overnight then subcultured (5×10^5 CFU/mL) in 6 mL of fresh CAMHB. Adjuvant was added into this 6-mL subculture at either 10 or 30 μM concentrations. […] This was serially repeated for a period of nine days.

[9] = system: A. baumannii isolates (23 strains); assay: Minimum inhibitory concentration against AB isolates; assay type: cell-based, Acinetobacter baumannii; conditions: CLR alone
Method: Broth microdilution method for MIC determination. Day cultures (6 h) of each bacterial strain in cation adjusted Mueller Hinton II broth (CAMHB, Fisher Scientific U.S.) were subcultured to 5×10^5 CFU/mL in CAMHB. Aliquots (1 mL) were placed in culture tubes and compound was added from 10 mM stock samples in DMSO, such that compound concentration equaled highest concentration tested (200 μM). Samples were then aliquoted (200 μL) into the first wells of a 96-well plate, with all remaining wells being filled with 100 μL of initial bacterial subculture. Row one wells were mixed five times, before 100 μL was transferred to row two. Row two was then mixed five times, and 100 μL was transferred to row three. This process was repeated until the final row had been mixed; this served to serially dilute the compound. Plates were then covered with GLAD Press n'Seal and incubated under stationary conditions at 37° C. for 16 h. MIC values were then recorded as the lowest concentration at which no bacterial growth was observed.

[10] = passaging with CLR and 30 μM adjuvant 1, day 2 and day 9, adjuvant 1 at 30 μM

For `Nc1nc(-c2ccc(NC(=O)c3cc(Br)cc(Br)c3)cc2)c[nH]1` [Compound 2], the “Fold Reduction of CLR MIC” value (AB5075 [1]; compound at 10 μM) is given as 16 fold, the “Fold Reduction of CLR MIC” value (AB5075 [1]; compound at 30 μM) is given as 128 fold and the MIC (AB5075 [2]) is given as 100 µM (≈ 43.6 µg/mL). The “Colistin MIC” value (AB5075 [3]; compound at 30 μM) was 4 µg/mL.

For `Nc1nc(-c2ccc(NC(=O)c3cc(F)cc(F)c3)cc2)c[nH]1` [Compound 4k], the biofilm inhibition activity [4] is listed as “lead biofilm inhibitor”, the MIC (AB5075 [5]; Acinetobacter baumannii) is listed as > 200 µM and the “CLR MIC” value (AB5075 [6]; compound tested at 30 μM) is listed as 4 µg/mL. For the same compound, the “Fold Reduction of CLR MIC” value (AB5075 [6]; compound tested at 30 μM) was “eight-fold” and the “adjuvant activity (CLR potentiation), rank by amide linker position” value (AB5075 [6]; dosed at 30 μM) was “highest adjuvant activity”.

With `Cl.Nc1nc(-c2ccc(NC(=O)c3c(Cl)cc(Cl)cc3Cl)cc2)c[nH]1` [Compound 4s] the MIC (AB5075 [5]) was 100 µM, the “Colistin MIC” value (AB5075 [7]; compound tested at 30 μM) was 0.25 µg/mL and the “CLR MIC” value (AB5075 [6]; compound tested at 10 μM) was 32 µg/mL. For the same compound, the “CLR MIC” value (AB5075 [6]; compound tested at 20 μM) was 16 µg/mL and the “CLR MIC” value (AB5075 [6]; compound tested at 25 μM) was 8 µg/mL.

In the case of `Cl.Nc1nc(-c2ccc(NC(=O)c3ccc(Cl)c(Cl)c3)cc2)c[nH]1` [Compound 4r], the MIC (AB5075 [5]) is reported as 100 µM, the “Colistin MIC” value (AB5075 [7]; compound tested at 30 μM) is reported as 4 µg/mL and the “CLR MIC” value (AB5075 [6]; compound tested at 7.5 μM) is reported as 8 µg/mL. The “CLR MIC” value (AB5075 [6]; compound tested at 10 μM) was 4 µg/mL, the “Fold Reduction of CLR MIC” value (AB5075 [6]; compound tested at 10 μM) was “eight” and the “CLR MIC” value (AB5075 [6]; compound tested at 20 μM) was 0.5 µg/mL. The “Fold Reduction of CLR MIC” value (AB5075 [6]; compound tested at 30 μM) was 64 fold.

For `Cl.Nc1nc(-c2ccc(NC(=O)c3cc(Cl)cc(Cl)c3)cc2)c[nH]1` [Compound 1, N-(4-(2-amino-1H-imidazol-4-yl)phenyl)-3,5-dichlorobenzamide hydrochloride], the “suppression of evolution of CLR resistance” value (AB5075 [8]; AB5075 passaged with CLR and 30 μM adjuvant, nine-day course, hydrochloride) was “suppressed the increase in macrolide resistance; also recorded: suppresses the acquisition of CLR resistance”, the “CLR MIC” value (AB5075 [8]; CLR-resistant AB5075 mutant from CLR-alone passaging, compound at 30 μM) was 2 µg/mL and the “CLR MIC” value (AB5075 [8]; [10]) was 0.25 µg/mL. For the same compound, the “Fold Reduction of CLR MIC” value (AB5075 [8]; [10]) was 128 fold, the “CLR MIC” value (AB5075 [8]; serial passage with CLR + adjuvant 1 (30 μM), day 2, compound 1 tested at 30 μM) was 0.25 µg/mL and the “CLR MIC” value (AB5075 [8]; serial passage with CLR + adjuvant 1 (30 μM), day 4, compound 1 tested at 30 μM) was 0.25 µg/mL. The “CLR MIC” value (AB5075 [8]; serial passage with CLR + adjuvant 1 (30 μM), day 6, compound 1 tested at 30 μM) was 0.25 µg/mL, the “CLR MIC” value (AB5075 [8]; serial passage with CLR + adjuvant 1 (30 μM), day 8, compound 1 tested at 30 μM) was ≤0.5 µg/mL and the “CLR MIC” value (AB5075 [8]; serial passage with CLR + adjuvant 1 (30 μM), day 10, compound 1 tested at 30 μM) was 0.25 µg/mL. The “Fold Reduction of CLR MIC” value (AB5075 [1]; compound at 10 μM) was 16 fold and the “Colistin MIC” value (AB5075 [3]; compound at 30 μM) was 4 µg/mL.

For `Cl.Nc1nc(-c2ccc(NC(=O)c3cc(F)c(F)c(F)c3)cc2)c[nH]1` [Compound 4v], the MIC (AB5075 [5]) was 100 µM, the “Colistin MIC” value (AB5075 [7]; compound tested at 30 μM) was 1 µg/mL and the “CLR MIC” value (AB5075 [6]; compound tested at 10 μM) was 32 µg/mL. The “CLR MIC” value (AB5075 [6]; compound tested at 20 μM) was 8 µg/mL and the “CLR MIC” value (AB5075 [6]; compound tested at 30 μM) was 1 µg/mL.

For `CC[C@H]1OC(=O)[C@H](C)[C@@H](O[C@H]2C[C@@](C)(OC)[C@@H](O)[C@H](C)O2)[C@H](C)[C@@H](O[C@@H]2O[C@H](C)C[C@H](N(C)C)[C@H]2O)[C@](C)(OC)C[C@@H](C)C(=O)[C@H](C)[C@@H](O)[C@]1(C)O` [CLR, clarithromycin, reference compound], the “CLR MIC” value ([9]; A. baumannii strain 3560) was 32 µg/mL, the “CLR MIC” value ([9]; A. baumannii strain 3785) was 64 µg/mL and the “CLR MIC” value ([9]; A. baumannii strain 3806) was 16 µg/mL. The “CLR MIC” value ([9]; A. baumannii strain 3927) was 32 µg/mL, the “CLR MIC” value ([9]; A. baumannii strain 4025) was 64 µg/mL and the “CLR MIC” value ([9]; A. baumannii strain 4026) was 64 µg/mL. The “CLR MIC” value ([9]; A. baumannii strain 4027) was 64 µg/mL, the “CLR MIC” value ([9]; A. baumannii strain 4052) was 32 µg/mL and the “CLR MIC” value ([9]; A. baumannii strain 4269) was 32 µg/mL. For the same compound, the “CLR MIC” value ([9]; A. baumannii strain 4448) was 32 µg/mL, the “CLR MIC” value ([9]; A. baumannii strain 4456) was 32 µg/mL and the “CLR MIC” value ([9]; A. baumannii strain 4490) was 32 µg/mL. The “CLR MIC” value ([9]; A. baumannii strain 4498) was 64 µg/mL, the “CLR MIC” value ([9]; A. baumannii strain 4795) was 32 µg/mL and the “CLR MIC” value ([9]; A. baumannii strain 4857) was 64 µg/mL. The “CLR MIC” value ([9]; A. baumannii strain 4878) was 32 µg/mL, the “CLR MIC” value ([9]; A. baumannii strain 4957) was 32 µg/mL and the “CLR MIC” value ([9]; A. baumannii strain 4991) was 32 µg/mL. The “CLR MIC” value ([9]; A. baumannii strain 5001) was 32 µg/mL, the “CLR MIC” value ([9]; A. baumannii strain 5197) was 64 µg/mL and the “CLR MIC” value ([9]; A. baumannii strain 5256) was 32 µg/mL. The “CLR MIC” value ([9]; A. baumannii strain 5711) was 64 µg/mL, the “CLR MIC” value ([9]; A. baumannii strain 8967) was 16 µg/mL and the “CLR MIC” value (AB5075 [8]; CLR-alone exposure of AB5075, day 0) was 32 µg/mL. The “CLR MIC” value (AB5075 [8]; CLR-alone exposure of AB5075, day 4) was 128 µg/mL, the “CLR MIC” value (AB5075 [8]; CLR-alone exposure of AB5075, day 6) was 512 µg/mL and the “CLR MIC” value (AB5075 [8]; CLR-resistant AB5075 mutant from CLR-alone passaging, no adjuvant) was 512 µg/mL. For the same compound, the “CLR MIC” value (AB5075 [8]; passaging with CLR and 30 μM adjuvant 1, day 2 and day 9, without adjuvant) was 32 µg/mL, the “CLR MIC” value (AB5075 [8]; serial passage with CLR + adjuvant 1 (30 μM), day 2, compound 1 tested at 0 μM) was 16 µg/mL and the “CLR MIC” value (AB5075 [8]; serial passage with CLR + adjuvant 1 (30 μM), day 4, compound 1 tested at 0 μM) was 32 µg/mL. For the same compound, the “CLR MIC” value (AB5075 [8]; serial passage with CLR + adjuvant 1 (30 μM), day 6, compound 1 tested at 0 μM) was 32 µg/mL, the “CLR MIC” value (AB5075 [8]; serial passage with CLR + adjuvant 1 (30 μM), day 8, compound 1 tested at 0 μM) was 32 µg/mL and the “CLR MIC” value (AB5075 [8]; serial passage with CLR + adjuvant 1 (30 μM), day 10, compound 1 tested at 0 μM) was 32 µg/mL. The “CLR MIC” value (AB5075 [1]; CLR alone) was 32 µg/mL and the “CLR MIC” value (AB5075 [6]; CLR alone, no adjuvant) was 32 µg/mL.

In the case of “Colistin sulfate salt [reference compound]”, the “Colistin MIC” value (AB5075 [7]; colistin alone, no adjuvant) is listed as 0.5 µg/mL and the “Colistin MIC” value (AB5075 [3]; colistin alone) is listed as 1 µg/mL.

From patent US12559461B2, “Antibiotic adjuvant compounds” (UNIVERSITY OF NOTRE DAME DU LAC, priority 2020, dated 2026)
